In the oligonucleotide strings, read from the 5' end, every base follows the letter of its sugar. An asterisk marks phosphorothioate; unmarked linkages are phosphodiester. Other units and linkages are bracketed, terminal groups are in braces. A string of capitals states the bases alone. {NAG37} = tridentate N-acetyl-galactosamine targeting ligand, structure (NAG37)s; [invAb] = inverted abasic unit; m = 2'-O-methyl; f = 2'-fluoro
Tests used:
Assay type in all cases: in vivo, cynomolgus macaque (Macaca fascicularis)
ANGPTL3 gene [1] = assay: Example 8: serum HDL in cynomolgus monkeys; details: 3.0 mg/kg single SC injection day 1, cynos, n=2
Method: (§1) Additional ANGPTL3 RNAi agents were evaluated in cynomolgus monkeys. On day 1, cynomolgus macaque (Macaca fascicularis) primates (also referred to herein as “cynos”) were administered a single subcutaneous injection of 0.3 mL/kg (approximately 1-2 mL volume, depending on animal mass) containing 3.0 mg/kg of one of ANGPTL3 RNAi agent AD05577, AD05307, AD05488, AD05654, or AD05659, each formulated in saline.
(§2) Two (2) cynos in each group were tested (n=2). Blood samples were drawn and serum samples were analyzed on days −8 (pre-dose), 1 (pre-dose), 8, 15, 22, 29, and 36. Cynos were fasted overnight prior to each collection. ANGPTL3 protein levels in serum were measured by ELISA assay (R&D Systems), according to the manufacturer's recommendations. Triglycerides, total cholesterol, high-density lipoprotein (HDL), and low-density lipoprotein (LDL) in serum were measured on a Cobas® Integra 400 (Roche Diagnostics), according to the manufacturer's recommendations.
(§3) The ANGPTL3 protein levels, triglyceride levels, total cholesterol levels, HDL levels, and LDL levels for each animal were normalized. For normalization, the level of ANGPTL3 protein, triglyceride, HDL, and total cholesterol, respectively, for each animal at a time point, was divided by the average pre-treatment level of expression in that animal (in this case at days −8, and 1 (pre-dose)) to determine the ratio of expression “normalized to pre-treatment.”

ANGPTL3 gene [2] = assay: Example 8: serum total cholesterol in cynomolgus monkeys; details: 3.0 mg/kg single SC injection day 1, cynos, n=2
Method: as §1, §2, §3

ANGPTL3 protein = assay: Example 8: serum ANGPTL3 protein by ELISA in cynomolgus monkeys; details: for Avg ANGPTL3 protein normalized to pre-treatment: 3.0 mg/kg single SC injection day 1, cynos, n=2
Method: as §1, §2, §3

ANGPTL3 gene [3] = assay: Example 8: serum triglycerides in cynomolgus monkeys; details: 3.0 mg/kg single SC injection day 1, cynos, n=2
Method: as §1, §2, §3

AD05488: RNAi agent duplex: antisense AM07235-AS, sense AM07234-SS (antisense mU*fA*mC*fUmGfAmUfCmAfAmAfUmAfUmGfUmUfGmAfG*mC; sense {NAG37}*[invAb]*mGmCmUmCmAmAmCmAfUfAfUmUmUmGmAmUmCmAmGmUmA*[invAb])
Average HDL Normalized to Pre-Treatment (ANGPTL3 gene [1]; Day 8): 0.832 | Average HDL Normalized to Pre-Treatment (ANGPTL3 gene [1]; Day 15): 0.695 | Average HDL Normalized to Pre-Treatment (ANGPTL3 gene [1]; Day 22): 0.688 | Average HDL Normalized to Pre-Treatment (ANGPTL3 gene [1]; Day 29): 0.657 | Average HDL Normalized to Pre-Treatment (ANGPTL3 gene [1]; Day 36): 0.622 | Avg Total Chol normalized to pre-treatment (ANGPTL3 gene [2]; Day 8): 0.840 | Avg Total Chol normalized to pre-treatment (ANGPTL3 gene [2]; Day 15): 0.779 | Avg Total Chol normalized to pre-treatment (ANGPTL3 gene [2]; Day 22): 0.743 | Avg Total Chol normalized to pre-treatment (ANGPTL3 gene [2]; Day 29): 0.674 | Avg Total Chol normalized to pre-treatment (ANGPTL3 gene [2]; Day 36): 0.722 | Avg ANGPTL3 protein normalized to pre-treatment (ANGPTL3 protein; Day 8): 0.423 | Avg ANGPTL3 protein normalized to pre-treatment (ANGPTL3 protein; Day 15): 0.334 | Avg ANGPTL3 protein normalized to pre-treatment (ANGPTL3 protein; Day 22): 0.343 | Avg ANGPTL3 protein normalized to pre-treatment (ANGPTL3 protein; Day 29): 0.276 | Avg ANGPTL3 protein normalized to pre-treatment (ANGPTL3 protein; Day 36): 0.229 | reduction in ANGPTL3 protein compared to pre-treatment (ANGPTL3 protein; all measured time points, single 3.0 mg/kg subcutaneous, cynomolgus monkeys): reduction | Avg TG normalized to pre-treatment (ANGPTL3 gene [3]; Day 8): 0.727 | Avg TG normalized to pre-treatment (ANGPTL3 gene [3]; Day 15): 0.586 | Avg TG normalized to pre-treatment (ANGPTL3 gene [3]; Day 22): 0.399 | Avg TG normalized to pre-treatment (ANGPTL3 gene [3]; Day 29): 0.534 | Avg TG normalized to pre-treatment (ANGPTL3 gene [3]; Day 36): 0.364

Reference: US12729377B2, “RNAi agents and compositions for inhibiting expression of angiopoietin-like 3 (ANGPTL3), and methods of use” (Arrowhead Pharmaceuticals, Inc., priority 2017, dated 2026)
